Experimental data published in patent US10940150B2, “Thymine derivatives and quinazoline-dione derivatives for the inhibition of HSP27” (TECHNISCHE UNIVERSITAET DRESDEN, priority 2014, dated 2021).

What was measured:
HSP27 [1] = molecular target: T1, HSP27 (Homo sapiens, UniProt P04792); test: Bio-layer interferometry binding to HSP27; conditions: wet-chemical experiments
Description: Bio-layer interferometry is a technique for detecting biomolecular interactions. It is an analytical technique that measures the optical interference of white light which is reflected by two surfaces: in each case, one surface consists of a layer of the immobilized target protein on the tip of the biosensor and one is an internal reference surface. The binding of ligands to the target protein alters the interference pattern and can be measured in real time.
For the measurements, an instrument of the ForteBio Octet Red 384 brand was used. The target protein HSP27 was biotinylated and bound to the appropriate sensors (SSA). […]
For measurements by bio-layer interferometry, biotinylated HSP27 protein was first bound to Super-Streptavidin sensors (SSA, Fortebio). […] In the case of a specific binding to HSP27 of the analyte to be measured, the loaded HSP27 sensor generates a stronger signal (response) than the concurrent reference sensor. After the “baseline” has been established by incubation with the reaction buffer (PBST 0.1% Tween 20 plus 3% DMSO), first the association and then the dissociation of the respective analyte is measured in real time. The analytes were measured in increasing concentrations in each case: 1.23-3.7-11.11-33.33-100-300 μM/l.

HSP27 [2] = molecular target: T1, HSP27; test: Capillary electrophoresis of heat-denatured citrate synthase protein precipitates; assay type: biochemical; conditions: for Efficacy compared with BVDU: 10 μmol/L vs 750 μmol/L BVDU; for Rel. quantity of protein prec. CS: 10 μmol/L, 43° C. for 120 minutes
Method: Since the heat-denatured protein aggregates of the citrate synthase from Example 1 are not water-soluble, these can be separated completely from the supernatant by means of centrifugation at room temperature at 16,000×g, 10 min. By using capillary electrophoresis, the compositions of the separated precipitates can be shown and quantified. The relative quantity of protein of precipitated citrate synthase serves as a measure of the efficacy of the test substances.
In each case, 481 nmol/L HSP27 and 1.44 μmol/L citrate synthase in 40 mmol/L HEPES buffer, pH 7.4, were employed. The relative quantity of protein of the precipitated citrate synthase in each case was normalized using a defined quantity of BSA as internal standard. The relative quantity of protein that precipitated when using 750 μmol/L BVDU was set at 1. The other test substances (2 representatives of phenothiazine derivatives of general formula (V), 2 representatives of purine derivatives of formula (I) or (II)) were each employed at a concentration of 10 μmol/L.
Since the heat-denatured protein aggregates of the citrate synthase from Example 2 are not water-soluble, these can be separated completely from the supernatant by means of centrifugation at room temperature at 16,000×g, 10 min. By using capillary electrophoresis, the compositions of the separated precipitates can be shown and quantified. The relative quantity of protein of precipitated citrate synthase serves as a measure of the efficacy of the test substances.
In each case, 481 nM HSP27 and 1.44 μmol/L citrate synthase in 40 mmol/L HEPES buffer, pH 7.4, were employed. The relative quantity of protein of the precipitated citrate synthase in each case was normalized using a defined quantity of BSA as internal standard. The relative quantity of protein that precipitated when using 750 μmol/L BVDU was set at 1. The other test substances (2 representatives of phenothiazine derivatives of general formula (V), 2 representatives of thymine derivatives of formula (I) or (II)) were employed at a concentration of 10 μmol/L in each case.
Otherwise, the experiments were performed as described above: […]

RPMI-8226 cells = test: Development of resistance to bortezomib in RPMI-8226 cells; assay type: cell-based; conditions: bortezomib 0.2-0.4 ng/ml + 0.5 μmol/L chlorpromazine (FIG. 5a)
Method: The cell line RPMI-8226 (DMSZ 402) is a “multiple myeloma” cell line and was chosen because bortezomib is employed as a standard therapy for multiple myeloma. RPMI-8226 cells respond to bortezomib, express HSP27 and develop resistance to Velcade. RPMI-8226 cells were seeded at a cell count of 100,000 cells/ml in each case and regularly passaged. […] In contrast, for RPMI 8226 cells that were treated with 30 μmol/L BVDU, a final cell count of 160,000 cells/ml was detected whereas the final cell count for the culture without the addition of an HSP27 inhibitor amounted to 350,000 cells/ml. As a control, RPMI 8226 cells were treated with the respective test substances alone, FIG. 4b.

T1 sequence (P04792 whole entry): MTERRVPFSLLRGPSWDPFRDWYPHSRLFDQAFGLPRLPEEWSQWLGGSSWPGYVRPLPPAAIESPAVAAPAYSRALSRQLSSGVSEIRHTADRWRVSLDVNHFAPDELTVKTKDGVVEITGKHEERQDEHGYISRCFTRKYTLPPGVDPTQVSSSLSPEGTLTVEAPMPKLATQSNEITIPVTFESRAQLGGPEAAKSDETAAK

With CN(C)CCCN1c2ccccc2Sc2ccc(Cl)cc21 [Chlorpromazine, reference compound] the “affinity for interaction with HSP27” value (HSP27 [1]) was “only a low affinity”, the “Efficacy compared with BVDU” value (HSP27 [2]; 43° C. for 120 minutes (Table 1)) was 79.5 x and the “Efficacy compared with BVDU” value (HSP27 [2]; 43° C. for 120 minutes (Table 2)) was 79.5 x. For the same compound, the “Rel. quantity of protein prec. CS” value (HSP27 [2]; relative to 750 μmol/L BVDU = 1 (Table 1)) was 1.06, the “Rel. quantity of protein prec. CS” value (HSP27 [2]; relative to 750 μmol/L BVDU = 1 (Table 2)) was 1.06 and the “development of resistance to the cytostatic agent bortezomib” value (RPMI-8226 cells) was “significantly inhibited”. The “living cells at the end of the experiment” value (RPMI-8226 cells; without HSP27 inhibitor 350,000 cells/ml) was 70,000 living cells per ml medium.
